Results: EP3634580B1, “COMPOSITIONS COMPRISING LACTULOSE FOR MAINTAINING OR IMPROVING GUT HEALTH IN HUMANS” (Fresenius Kabi Austria GmbH, priority 2017, dated 2018)

What was measured:
[1] = test system: colon microbiota of human origin; assay: TNO Intestinal Model (TIM-2), in vitro model of the proximal colon: sodium hydroxide consumption; format: cell-based; conditions: for Cumulative sodium hydroxide consumption: mean of n = 2
Description: (§1) Crystalline lactulose was administered daily for 5 days to the TNO Intestinal Model (TIM-2), an in vitro model of the proximal colon. NaOH consumption, short-chain fatty acids (SCFA) production, ammonia production as well as relative abundance of microbiota were analyzed.
(§2) The substance administered in this study was lactulose crystals (S.C.M. Società Chimica Mugello S.r.l., Vicchio, Italy). Experiments without the addition of lactulose served as negative control.
(§3) The TNO Intestinal Model (TIM-2) is a dynamic in vitro model of the proximal colon. The TIM-2 system was inoculated with a highly metabolically active colon microbiota of human origin. In the system the following standardized conditions were simulated: body temperature; pH in the lumen of the proximal colon (pH 5.8); delivery of a substrate from the 'ileum' (SIEM; Standardized Ileum Efflux Medium); mixing and transport of the intestinal contents; anaerobiosis; absorption of water and absorption of fermentation products, metabolites and other low molecular weight compounds (via a semipermeable membrane inside the colon model).
(§4) SIEM simulates material passing the ileocecal valve in humans. It contained the major non-digestible carbohydrates (pectin, xylan, arabinogalactan, amylopectin, starch) found in a normal western diet as well as protein (bactopepton, casein), ox-bile, Tween 80 as well as vitamins and minerals. SIEM was added to the system at a speed of 2.5 mL/h and the speed of the dialysis liquid was 1.5 mL/min. During the experiment, the intestinal contents were mixed continuously by the peristaltic movements of the TIM-2 system. In order to simulate the transit of the chime from proximal to distal colon, 25 mL of the lumen was removed every 24 h and discarded.
(§5) Before performing each experiment, the system was inoculated with a standardized microbiota of human origin. This standardized microbiota was prepared using fecal donations from a group of 4 healthy volunteers (3 females, 1 male, age 38.8 ± 3.9 years; BMI (body mass index) 24.2 ± 1.5 kg/m^2). Individuals provided signed informed consent before participation, were non-smokers and had not used antibiotics, prebiotics, probiotics or laxatives within 1 month before the stool donation.
(§6) At the start of the adaptation period the microbiota was allowed to adapt to the model conditions and SIEM for 16 h. After the adaptation period the 120 h test period started in which lactulose was added to TIM-2 once daily.
(§7) Lactulose was added to the system at daily doses of 2 g, 3 g, 4 g, and 5 g lactulose. Each dose as well as the control experiment was studied in duplicate (n = 2). The test period of the TIM-2 experiments lasted 120 h (5 consecutive days).
The pH was kept at a value of 5.8 by automatic titration with 2 M NaOH, the consumption of NaOH was monitored.

Bifidobacterium = assay: TIM-2 microbiota composition by V4 16S rDNA amplicon sequencing; format: cell-based, human; conditions: for Average number of the bacterial genus Bifidobacterium: after 120 h of exposure in TIM-2, control 28,345
Description: as §1, §2, §3, §4, §5, §6, §7
(§8) At the beginning and end of the experiment (t = 0 h and t = 120 h) luminal samples were used to investigate the composition of the microbiota. The samples were snap frozen in liquid nitrogen and stored at ≤ -72 °C until analysis.
(§9) The bacterial population in the TIM-2 samples was analyzed using Next Generation sequencing. Total DNA from the collected TIM-2 lumen samples at the start (t = 0 h) and at the end (t = 120 h) of the experiments was isolated. To determine the recovery of bacterial DNA from the samples, a quantitative polymerase chain reaction (qPCR) using primers specific for the bacterial 16S rRNA gene was used. Changes in the microbiota composition were analyzed by using mass V4 16S rDNA amplicon sequencing. Processing of the sequencing data was done using the Mothur pipeline.

Lactobacillus = assay: as above; format: cell-based, human; conditions: for Average number of the bacterial genus Lactobacillus: after 120 h of exposure in TIM-2, control 82
Description: as §1, §2, §3, §4, §5, §6, §7, §8, §9

[2] = test system: colon microbiota of human origin; assay: TIM-2 in vitro model of the proximal colon: short-chain fatty acids (SCFA) production; format: cell-based; conditions: for Cumulative production of butyrate / Cumulative production of total short chain fatty acids (SCFA): mean of n = 2
Description: as §1, §2, §3, §4, §5, §6, §7
Metabolites like the short-chain fatty acids (SCFA) and ammonia produced in TIM-2 were continuously removed from the lumen by a semipermeable membrane unit. This dialysate was collected at the start of the test period and after 24, 48, 72, 96, and 120 h.
The lumen and dialysate fractions of TIM-2 were analyzed using gas chromatography for SCFA (acetate, propionate and butyrate). Dialysate samples were directly used. Lumen samples were centrifuged (12,000 rpm at 4 °C for 10 min).

[3] = daily doses of 2 g, 3 g, 4 g, 5 g, 120 h test period, versus control
[4] = after 120 h in TIM-2, versus control
[5] = lactulose 2 g daily, 0 h (values at the start set to zero), control 0
[6] = lactulose 3 g daily, 0 h (values at the start set to zero), control 0
[7] = lactulose 4 g daily, 0 h (values at the start set to zero), control 0
[8] = lactulose 5 g daily, 0 h (values at the start set to zero), control 0

## OC[C@H]1O[C@@H](O[C@@H]2[C@@H](CO)OC(O)(CO)[C@H]2O)[C@H](O)[C@@H](O)[C@H]1O (mixture of isomers) [Lactulose, lactulose]
[1]; [3]
  use of NaOH (in words): dose dependent increased use of NaOH
[1]; lactulose 2 g daily, 0 h, control 19
  Cumulative sodium hydroxide consumption: 19 mL
[1]; lactulose 2 g daily, 24 h, control 48
  Cumulative sodium hydroxide consumption: 58 mL
[1]; lactulose 2 g daily, 48 h, control 71
  Cumulative sodium hydroxide consumption: 89 mL
[1]; lactulose 2 g daily, 72 h, control 90
  Cumulative sodium hydroxide consumption: 115 mL
[1]; lactulose 2 g daily, 96 h, control 107
  Cumulative sodium hydroxide consumption: 139 mL
[1]; lactulose 2 g daily, 120 h, control 125
  Cumulative sodium hydroxide consumption: 162 mL
[1]; lactulose 3 g daily, 0 h, control 19
  Cumulative sodium hydroxide consumption: 20 mL
[1]; lactulose 3 g daily, 24 h, control 48
  Cumulative sodium hydroxide consumption: 65 mL
[1]; lactulose 3 g daily, 48 h, control 71
  Cumulative sodium hydroxide consumption: 105 mL
[1]; lactulose 3 g daily, 72 h, control 90
  Cumulative sodium hydroxide consumption: 136 mL
[1]; lactulose 3 g daily, 96 h, control 107
  Cumulative sodium hydroxide consumption: 169 mL
[1]; lactulose 3 g daily, 120 h, control 125
  Cumulative sodium hydroxide consumption: 202 mL
[1]; lactulose 4 g daily, 0 h, control 19
  Cumulative sodium hydroxide consumption: 20 mL
[1]; lactulose 4 g daily, 24 h, control 48
  Cumulative sodium hydroxide consumption: 72 mL
[1]; lactulose 4 g daily, 48 h, control 71
  Cumulative sodium hydroxide consumption: 113 mL
[1]; lactulose 4 g daily, 72 h, control 90
  Cumulative sodium hydroxide consumption: 151 mL
[1]; lactulose 4 g daily, 96 h, control 107
  Cumulative sodium hydroxide consumption: 185 mL
[1]; lactulose 4 g daily, 120 h, control 125
  Cumulative sodium hydroxide consumption: 223 mL
[1]; lactulose 5 g daily, 0 h, control 19
  Cumulative sodium hydroxide consumption: 18 mL
[1]; lactulose 5 g daily, 24 h, control 48
  Cumulative sodium hydroxide consumption: 69 mL
[1]; lactulose 5 g daily, 48 h, control 71
  Cumulative sodium hydroxide consumption: 117 mL
[1]; lactulose 5 g daily, 72 h, control 90
  Cumulative sodium hydroxide consumption: 157 mL
[1]; lactulose 5 g daily, 96 h, control 107
  Cumulative sodium hydroxide consumption: 193 mL
[1]; lactulose 5 g daily, 120 h, control 125
  Cumulative sodium hydroxide consumption: 223 mL
Bifidobacterium; [4]
  abundance of Bifidobacterium (in words): increased the abundance
Bifidobacterium; lactulose 2 g daily
  Average number of the bacterial genus Bifidobacterium: 24,781
Bifidobacterium; lactulose 3 g daily
  Average number of the bacterial genus Bifidobacterium: 17,424
Bifidobacterium; lactulose 4 g daily
  Average number of the bacterial genus Bifidobacterium: 135,876
Bifidobacterium; lactulose 5 g daily
  Average number of the bacterial genus Bifidobacterium: 116,792
Lactobacillus; [4]
  abundance of Lactobacillus (in words): increased the abundance
Lactobacillus; lactulose 2 g daily
  Average number of the bacterial genus Lactobacillus: 1,623
Lactobacillus; lactulose 3 g daily
  Average number of the bacterial genus Lactobacillus: 1,504
Lactobacillus; lactulose 4 g daily
  Average number of the bacterial genus Lactobacillus: 12,047
Lactobacillus; lactulose 5 g daily
  Average number of the bacterial genus Lactobacillus: 912
[2]; [3]
  SCFA production (in words): increased the levels
  levels of butyrate (in words): increased the levels
[2]; daily doses of 2 g, 3 g, 4 g, 5 g, 120 h test period, versus control, listed as lactulose
  SCFA production (in words): higher SCFA production as compared to the control
[2]; [5]
  Cumulative production of butyrate: 0 mmol
  Cumulative production of total short chain fatty acids (SCFA): 0 mmol
[2]; lactulose 2 g daily, 24 h, control 7
  Cumulative production of butyrate: 14 mmol
[2]; lactulose 2 g daily, 24 h, control 62
  Cumulative production of total short chain fatty acids (SCFA): 85 mmol
[2]; lactulose 2 g daily, 48 h, control 18
  Cumulative production of butyrate: 27 mmol
[2]; lactulose 2 g daily, 48 h, control 129
  Cumulative production of total short chain fatty acids (SCFA): 163 mmol
[2]; lactulose 2 g daily, 72 h, control 31
  Cumulative production of butyrate: 39 mmol
[2]; lactulose 2 g daily, 72 h, control 194
  Cumulative production of total short chain fatty acids (SCFA): 234 mmol
[2]; lactulose 2 g daily, 96 h, control 44
  Cumulative production of butyrate: 52 mmol
[2]; lactulose 2 g daily, 96 h, control 257
  Cumulative production of total short chain fatty acids (SCFA): 318 mmol
[2]; lactulose 2 g daily, 120 h, control 58
  Cumulative production of butyrate: 69 mmol
[2]; lactulose 2 g daily, 120 h, control 320
  Cumulative production of total short chain fatty acids (SCFA): 403 mmol
[2]; [6]
  Cumulative production of butyrate: 0 mmol
  Cumulative production of total short chain fatty acids (SCFA): 0 mmol
[2]; lactulose 3 g daily, 24 h, control 7
  Cumulative production of butyrate: 12 mmol
[2]; lactulose 3 g daily, 24 h, control 62
  Cumulative production of total short chain fatty acids (SCFA): 85 mmol
[2]; lactulose 3 g daily, 48 h, control 18
  Cumulative production of butyrate: 27 mmol
[2]; lactulose 3 g daily, 48 h, control 129
  Cumulative production of total short chain fatty acids (SCFA): 175 mmol
[2]; lactulose 3 g daily, 72 h, control 31
  Cumulative production of butyrate: 40 mmol
[2]; lactulose 3 g daily, 72 h, control 194
  Cumulative production of total short chain fatty acids (SCFA): 256 mmol
[2]; lactulose 3 g daily, 96 h, control 44
  Cumulative production of butyrate: 54 mmol
[2]; lactulose 3 g daily, 96 h, control 257
  Cumulative production of total short chain fatty acids (SCFA): 340 mmol
[2]; lactulose 3 g daily, 120 h, control 58
  Cumulative production of butyrate: 68 mmol
[2]; lactulose 3 g daily, 120 h, control 320
  Cumulative production of total short chain fatty acids (SCFA): 427 mmol
[2]; [7]
  Cumulative production of butyrate: 0 mmol
  Cumulative production of total short chain fatty acids (SCFA): 0 mmol
[2]; lactulose 4 g daily, 24 h, control 7
  Cumulative production of butyrate: 12 mmol
[2]; lactulose 4 g daily, 24 h, control 62
  Cumulative production of total short chain fatty acids (SCFA): 97 mmol
[2]; lactulose 4 g daily, 48 h, control 18
  Cumulative production of butyrate: 30 mmol
[2]; lactulose 4 g daily, 48 h, control 129
  Cumulative production of total short chain fatty acids (SCFA): 216 mmol
[2]; lactulose 4 g daily, 72 h, control 31
  Cumulative production of butyrate: 47 mmol
[2]; lactulose 4 g daily, 72 h, control 194
  Cumulative production of total short chain fatty acids (SCFA): 310 mmol
[2]; lactulose 4 g daily, 96 h, control 44
  Cumulative production of butyrate: 70 mmol
[2]; lactulose 4 g daily, 96 h, control 257
  Cumulative production of total short chain fatty acids (SCFA): 405 mmol
[2]; lactulose 4 g daily, 120 h, control 58
  Cumulative production of butyrate: 93 mmol
[2]; lactulose 4 g daily, 120 h, control 320
  Cumulative production of total short chain fatty acids (SCFA): 500 mmol
[2]; [8]
  Cumulative production of butyrate: 0 mmol
  Cumulative production of total short chain fatty acids (SCFA): 0 mmol
[2]; lactulose 5 g daily, 24 h, control 7
  Cumulative production of butyrate: 8 mmol
[2]; lactulose 5 g daily, 24 h, control 62
  Cumulative production of total short chain fatty acids (SCFA): 84 mmol
[2]; lactulose 5 g daily, 48 h, control 18
  Cumulative production of butyrate: 29 mmol
[2]; lactulose 5 g daily, 48 h, control 129
  Cumulative production of total short chain fatty acids (SCFA): 214 mmol
[2]; lactulose 5 g daily, 72 h, control 31
  Cumulative production of butyrate: 53 mmol
[2]; lactulose 5 g daily, 72 h, control 194
  Cumulative production of total short chain fatty acids (SCFA): 309 mmol
[2]; lactulose 5 g daily, 96 h, control 44
  Cumulative production of butyrate: 84 mmol
[2]; lactulose 5 g daily, 96 h, control 257
  Cumulative production of total short chain fatty acids (SCFA): 430 mmol
[2]; lactulose 5 g daily, 120 h, control 58
  Cumulative production of butyrate: 118 mmol
[2]; lactulose 5 g daily, 120 h, control 320
  Cumulative production of total short chain fatty acids (SCFA): 520 mmol
